Experimental data from ChEMBL document CHEMBL1201862, “PubChem BioAssay data set” (2004).
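Results reflect a 48-hour exposure of cells in 96-well plates to compound at five concentrations. GI50 is the concentration that inhibits growth by half.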 Activity calls are given as the source filed them. Cut-off read from the data, not from the text of the source: active = GI50 up to about 1.1 µM and inactive = higher.

Tests used:
Experiment in all cases: NCI anticancer screen, dose series, 48 h
786-0 = tested on: 786-0
A549 = tested on: A549
ACHN = tested on: ACHN
CCRF-CEM = tested on: CCRF-CEM
HCT-15 = tested on: HCT-15
HOP-62 = tested on: HOP-62
Hs-578T = tested on: Hs-578T
KM12 = tested on: KM12
MDA-MB-231 = tested on: MDA-MB-231
MOLT-4 = tested on: MOLT-4
Malme-3M = tested on: Malme-3M
NCI-H460 = tested on: NCI-H460
NCI/ADR-RES = tested on: NCI/ADR-RES
OVCAR-4 = tested on: OVCAR-4
OVCAR-5 = tested on: OVCAR-5
SN12C = tested on: SN12C
SNB-19 = tested on: SNB-19
SNB-75 = tested on: SNB-75
SW-620 = tested on: SW-620
U-251 = tested on: U-251

| SMILES | GI50 (786-0) | GI50 (A549) | GI50 (ACHN) | GI50 (CCRF-CEM) | GI50 (HCT-15) | GI50 (HOP-62) | GI50 (Hs-578T) | GI50 (KM12) | GI50 (MDA-MB-231) | GI50 (MOLT-4) | GI50 (Malme-3M) | GI50 (NCI-H460) | GI50 (NCI/ADR-RES) | GI50 (OVCAR-4) | GI50 (OVCAR-5) | GI50 (SN12C) | GI50 (SNB-19) | GI50 (SNB-75) | GI50 (SW-620) | GI50 (U-251) |
| --- | --- | --- | --- | --- | --- | --- | --- | --- | --- | --- | --- | --- | --- | --- | --- | --- | --- | --- | --- | --- |
| CC1(c2ccc(F)cc2)CC(c2ccc(F)cc2)=C(C#N)C(=C(C#N)C#N)N1 (configuration not stated) | 15.3 µM (inactive) | 19.1 µM (inactive) | 16.6 µM (inactive) | 2.11 µM (inactive) | 14.8 µM | 19.7 µM (inactive) | 23.3 µM (inactive) | 15 µM (inactive) | 21.2 µM (inactive) | 14.4 µM (inactive) | 18.7 µM (inactive) | 18 µM (inactive) | 20.5 µM (inactive) | 13.4 µM (inactive) | 19.8 µM (inactive) | 16.7 µM (inactive) | 17.4 µM (inactive) | 19.8 µM (inactive) | 7.57 µM (inactive) | 16.6 µM (inactive) |
| OC(c1ccc(F)cc1)(c1ccc(F)cc1)C1CC1 | 29.2 µM (inactive) | 26.6 µM (inactive) | 30.1 µM (inactive) | 24.8 µM (inactive) | 23 µM | 65.9 µM (inactive) | 26.9 µM (inactive) | 26.7 µM (inactive) | 36.1 µM (inactive) | 21.5 µM (inactive) | 23.9 µM (inactive) | 29 µM (inactive) | 21.3 µM (inactive) | 26.2 µM (inactive) | 37.3 µM (inactive) | 20.9 µM (inactive) | 42.8 µM (inactive) | 50.6 µM (inactive) | 25.6 µM (inactive) | 24 µM (inactive) |
| CCCCCCCCCCCCCCCCOP(=O)(O)OCC(N)C(=O)O (configuration not stated) | 21.5 µM (inactive) | 21.9 µM (inactive) | 16.3 µM (inactive) | 22.8 µM (inactive) | 27.7 µM | 25 µM (inactive) | 16.1 µM (inactive) | 12.6 µM (inactive) | 24.7 µM (inactive) | 11.5 µM (inactive) | 63.2 µM (inactive) | 17.1 µM (inactive) | 33.3 µM (inactive) | 18.7 µM (inactive) | 20.4 µM (inactive) | 18.3 µM (inactive) | 16.4 µM (inactive) | 25.4 µM (inactive) | 17 µM (inactive) | 12.9 µM (inactive) |
| CN(CCc1ccccn1)c1ccc2c(c1)C(=O)c1ccccc1-2 | 41.3 µM (inactive) | 14.4 µM (inactive) | > 100 µM (inactive) | > 100 µM (inactive) | 23 µM | > 100 µM (inactive) | 73.3 µM (inactive) | > 100 µM (inactive) | > 100 µM (inactive) | – | > 100 µM (inactive) | 9.68 µM (inactive) | > 100 µM (inactive) | 69.5 µM (inactive) | > 100 µM (inactive) | 53.8 µM (inactive) | 88.9 µM (inactive) | 99.1 µM (inactive) | > 100 µM (inactive) | 43.3 µM (inactive) |
| COC(=O)c1c2c(cc3c1CC1(C3)Cc3cc4c(c(C(C)=O)c3C1)CCC4)C=CC2 (configuration not stated) | > 31.6 µM (inactive) | > 31.6 µM (inactive) | 10.2 µM (inactive) | 20.7 µM (inactive) | 18.3 µM | > 31.6 µM (inactive) | > 31.6 µM (inactive) | > 31.6 µM (inactive) | > 20.7 µM (inactive) | > 31.6 µM (inactive) | > 10 µM (inactive) | > 31.6 µM (inactive) | > 31.6 µM (inactive) | 24.5 µM (inactive) | > 31.6 µM (inactive) | > 31.6 µM (inactive) | > 31.6 µM (inactive) | 4.6 µM (inactive) | > 10 µM (inactive) | > 31.6 µM (inactive) |
| CCN(CC)CCOC(=O)Cc1cccc2c(=O)cc(-c3ccccc3)oc12 | 55.1 µM (inactive) | 6.62 µM (inactive) | 45.2 µM (inactive) | 34.4 µM (inactive) | 18.5 µM | 46.8 µM (inactive) | 28.3 µM (inactive) | 34.8 µM (inactive) | 26.4 µM (inactive) | 42.9 µM (inactive) | 39.3 µM (inactive) | 10.2 µM (inactive) | 50 µM (inactive) | 35.9 µM (inactive) | 57.9 µM (inactive) | 51.2 µM (inactive) | 56.1 µM (inactive) | 41.7 µM (inactive) | 50.7 µM (inactive) | 50.2 µM (inactive) |
| CCOC(=O)C1(C(=O)OCC)C[C@@H](C)[C@@H](O)C1 | > 100 µM (inactive) | > 100 µM (inactive) | > 100 µM (inactive) | > 100 µM (inactive) | > 100 µM | > 100 µM (inactive) | > 100 µM (inactive) | > 100 µM (inactive) | > 100 µM (inactive) | > 100 µM (inactive) | 72.1 µM (inactive) | > 100 µM (inactive) | > 100 µM (inactive) | > 100 µM (inactive) | > 100 µM (inactive) | > 100 µM (inactive) | > 100 µM (inactive) | 75.7 µM (inactive) | > 100 µM (inactive) | > 100 µM (inactive) |
| CC(=O)OCC1OC(n2c(C)c(/N=N/c3ccc(Cl)cc3)c(C)c(C#N)c2=S)C(OC(C)=O)C(OC(C)=O)C1OC(C)=O (configuration not stated) | 19.9 µM (inactive) | 64.4 µM (inactive) | 58.1 µM (inactive) | > 100 µM (inactive) | > 100 µM | 22.8 µM (inactive) | 21.5 µM (inactive) | > 100 µM (inactive) | 65.2 µM (inactive) | > 100 µM (inactive) | > 100 µM (inactive) | > 100 µM (inactive) | > 100 µM (inactive) | > 100 µM (inactive) | 31.8 µM (inactive) | > 100 µM (inactive) | 28.8 µM (inactive) | 20.1 µM (inactive) | > 100 µM (inactive) | 28.1 µM (inactive) |
| Cn1ccnc1CCc1ccc(F)cc1F | > 100 µM (inactive) | > 100 µM (inactive) | > 100 µM (inactive) | > 100 µM (inactive) | > 100 µM | > 100 µM (inactive) | > 100 µM (inactive) | > 100 µM (inactive) | > 100 µM (inactive) | > 100 µM (inactive) | > 100 µM (inactive) | > 100 µM (inactive) | > 100 µM (inactive) | > 100 µM (inactive) | > 100 µM (inactive) | > 100 µM (inactive) | > 100 µM (inactive) | > 100 µM (inactive) | > 100 µM (inactive) | > 100 µM (inactive) |
| Cc1cnc(-n2c(C)nc3cc(Cl)ccc3c2=O)s1 | 24.5 µM (inactive) | 32.7 µM (inactive) | 31 µM (inactive) | 31.5 µM (inactive) | 26.2 µM | > 100 µM (inactive) | 74.6 µM (inactive) | 21.8 µM (inactive) | 42.5 µM (inactive) | 30.8 µM (inactive) | 67.9 µM (inactive) | 30.2 µM (inactive) | 28 µM (inactive) | 58.5 µM (inactive) | 56.4 µM (inactive) | 34.2 µM (inactive) | 35.1 µM (inactive) | 10.6 µM (inactive) | 43 µM (inactive) | 30.5 µM (inactive) |
| Cc1ccc2c(=O)[nH]sc2c1 | 3.72 µM (inactive) | 19 µM (inactive) | 9.29 µM (inactive) | 3.26 µM (inactive) | 14.6 µM | 19.5 µM (inactive) | 21.5 µM (inactive) | – | 17.3 µM (inactive) | 3.98 µM (inactive) | 20.4 µM (inactive) | 53.3 µM (inactive) | 21.6 µM (inactive) | 27.9 µM (inactive) | 94 µM (inactive) | 7.83 µM (inactive) | 39.4 µM (inactive) | 71.6 µM (inactive) | 12.6 µM (inactive) | 14.8 µM (inactive) |
| Clc1ccc2c(NCCCC/N=C/c3ccccc3)ccnc2c1 | 9.16 µM (inactive) | 13.4 µM (inactive) | 12.5 µM (inactive) | 6.49 µM (inactive) | 17.8 µM | 10 µM (inactive) | 11.6 µM (inactive) | 7.98 µM (inactive) | 13.6 µM (inactive) | 2.82 µM (inactive) | 14.4 µM (inactive) | 11 µM (inactive) | 20.7 µM (inactive) | 10.5 µM (inactive) | 13 µM (inactive) | 5.69 µM (inactive) | 14.8 µM (inactive) | 11.1 µM (inactive) | 5.78 µM (inactive) | 11 µM (inactive) |
| C[C@]12CC[C@@H]3c4ccc(OP(=O)(O)O)cc4CC[C@H]3[C@@H]1CCC2=O | > 100 µM (inactive) | 90.2 µM (inactive) | > 100 µM (inactive) | 27.6 µM (inactive) | > 100 µM | > 100 µM (inactive) | 41.3 µM (inactive) | 54.5 µM (inactive) | 80.7 µM (inactive) | 54 µM (inactive) | > 100 µM (inactive) | 91.6 µM (inactive) | 56 µM (inactive) | 50.9 µM (inactive) | > 100 µM (inactive) | 70.1 µM (inactive) | > 100 µM (inactive) | 68.9 µM (inactive) | 63.7 µM (inactive) | 93.3 µM (inactive) |
| Oc1cc(-c2cccc(Cl)c2)nc2ncccc12 | 0.249 µM (active) | 0.126 µM (active) | 3.27 µM (inactive) | 0.0689 µM (active) | 0.0489 µM | 0.253 µM (active) | 0.084 µM (active) | 0.0515 µM (active) | 0.57 µM (active) | 0.0545 µM (active) | 0.139 µM (active) | 0.0605 µM (active) | 0.221 µM (active) | > 66.7 µM (inactive) | – | 0.141 µM (active) | 0.192 µM (active) | 0.971 µM (active) | 0.114 µM (active) | 0.106 µM (active) |
| NCCCCNCCCN1CC1 | 0.359 µM (active) | 4.94 µM (inactive) | 0.902 µM (active) | 0.951 µM (active) | 4.91 µM | 0.92 µM (active) | 0.433 µM (active) | 4.67 µM (inactive) | 0.624 µM (active) | 1 µM (active) | 1.77 µM (inactive) | 5.5 µM (inactive) | 1.16 µM (inactive) | 0.205 µM (active) | 5.27 µM (inactive) | 1.19 µM (inactive) | 1.86 µM (inactive) | 0.246 µM (active) | 4.16 µM (inactive) | 1.3 µM (inactive) |
